# Data taken from US6472348B1, “Pyridone derivatives and herbicides” (Kumiai Chemical Industry Co., Ltd., priority 1996, dated 2002).
# Tested on: barnyardgrass (Ec)
# Assay: Test Example 1: herbicidal effects by paddy field soil treatment;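 further: grade of growth control; 5 = at least 90%; 4 = 70 to 90%; 3 = 50 to 70%; 2 = 30 to 50%; 1 = 10 to 30%; 0 = under 10%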
# Type: in vivo
# Details: 100 g of the active ingredient per 10 ares, 21st day after the application, index 0-5 of Table 47
# In short: (§1)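 Flooded paddy-soil pots (3 cm water) sown after puddling/leveling; treatment 100 g a.i./10 ares; greenhouse culture; herbicidal effect rated visually on a scoring scale at 21 d post-application.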
row,Compound,Herbicidal effects Ec
1,Cn1c(C(F)(F)F)ccc(-c2cc(OC3CCOC3)c(Cl)cc2F)c1=O (stereo not shown) [1-162],5

# Tested on: bulrush (Sc)
# Assay: as above
# Type: in vivo
# Details: 100 g of the active ingredient per 10 ares, 21st day after the application, index 0-5 of Table 47
# In short: as §1
row,Compound,Herbicidal effects Sc
1,Cn1c(C(F)(F)F)ccc(-c2cc(OC3CCOC3)c(Cl)cc2F)c1=O (stereo not shown) [1-162],5

# Tested on: monochoria (Mo)
# Assay: as above
# Type: in vivo
# Details: 100 g of the active ingredient per 10 ares, 21st day after the application, index 0-5 of Table 47
# In short: as §1
row,Compound,Herbicidal effects Mo
1,Cn1c(C(F)(F)F)ccc(-c2cc(OC3CCOC3)c(Cl)cc2F)c1=O (stereo not shown) [1-162],5

# Tested on: Digitaria ciliaris (Di)
# Assay: Test Example 2: herbicidal effects by upland field soil treatment;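 further: grade of growth control; 5 = at least 90%; 4 = 70 to 90%; 3 = 50 to 70%; 2 = 30 to 50%; 1 = 10 to 30%; 0 = under 10%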
# Type: in vivo
# Details: 100 g of the active ingredient per 10 ares, 21st day after the application, index 0-5 of Table 47
# From the text: (§2) (Test on Herbicidal Effects by Upland Field Soil Treatment)
row,Compound,Herbicidal effects Di
1,Cn1c(C(F)(F)F)ccc(-c2cc(OC3CCOC3)c(Cl)cc2F)c1=O (stereo not shown) [1-162],5

# Tested on: barnyardgrass (Ec)
# Assay: as above
# Type: in vivo
# Details: 100 g of the active ingredient per 10 ares, 21st day after the application, index 0-5 of Table 47
# From the text: as §2
row,Compound,Herbicidal effects Ec
1,Cn1c(C(F)(F)F)ccc(-c2cc(OC3CCOC3)c(Cl)cc2F)c1=O (stereo not shown) [1-162],5

# Tested on: common lambsquarters (Ch)
# Assay: as above
# Type: in vivo
# Details: 100 g of the active ingredient per 10 ares, 21st day after the application, index 0-5 of Table 47
# From the text: as §2
row,Compound,Herbicidal effects Ch
1,Cn1c(C(F)(F)F)ccc(-c2cc(OC3CCOC3)c(Cl)cc2F)c1=O (stereo not shown) [1-162],5

# Tested on: pale smartweed (Po)
# Assay: as above
# Type: in vivo
# Details: 100 g of the active ingredient per 10 ares, 21st day after the application, index 0-5 of Table 47
# From the text: as §2
row,Compound,Herbicidal effects Po
1,Cn1c(C(F)(F)F)ccc(-c2cc(OC3CCOC3)c(Cl)cc2F)c1=O (stereo not shown) [1-162],5

# Tested on: rice flatsedge (Ci)
# Assay: as above
# Type: in vivo
# Details: 100 g of the active ingredient per 10 ares, 21st day after the application, index 0-5 of Table 47
# From the text: as §2
row,Compound,Herbicidal effects Ci
1,Cn1c(C(F)(F)F)ccc(-c2cc(OC3CCOC3)c(Cl)cc2F)c1=O (stereo not shown) [1-162],5

# Tested on: slender amaranth (Am)
# Assay: as above
# Type: in vivo
# Details: 100 g of the active ingredient per 10 ares, 21st day after the application, index 0-5 of Table 47
# From the text: as §2
row,Compound,Herbicidal effects Am
1,Cn1c(C(F)(F)F)ccc(-c2cc(OC3CCOC3)c(Cl)cc2F)c1=O (stereo not shown) [1-162],5

# Tested on: Diaitaria ciliaris (Di)
# Assay: Test Example 3: herbicidal effects by upland field foliage treatment
# Type: in vivo
# Parameters: scale not given here
# Details: 100 g of the active ingredient per 10 ares, evaluated on the 14th day after treatment
# In short: (§3)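 Post-emergence upland foliage test. Seedlings grown 2 weeks under glass in pots (120 cm^2) of sand, seed topped with soil; treated on the foliage, kept in greenhouse, then assessed at day 14 using rating standards.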
row,Compound,Herbicidal effects Di
1,Cn1c(C(F)(F)F)ccc(-c2cc(OC3CCOC3)c(Cl)cc2F)c1=O (stereo not shown) [1-162],5

# Tested on: barnyardgrass (Ec)
# Assay: as above
# Type: in vivo
# Parameters: scale not given here
# Details: 100 g of the active ingredient per 10 ares, evaluated on the 14th day after treatment
# In short: as §3
row,Compound,Herbicidal effects Ec
1,Cn1c(C(F)(F)F)ccc(-c2cc(OC3CCOC3)c(Cl)cc2F)c1=O (stereo not shown) [1-162],5

# Tested on: common lambsquarters (Ch)
# Assay: as above
# Type: in vivo
# Parameters: scale not given here
# Details: 100 g of the active ingredient per 10 ares, evaluated on the 14th day after treatment
# In short: as §3
row,Compound,Herbicidal effects Ch
1,Cn1c(C(F)(F)F)ccc(-c2cc(OC3CCOC3)c(Cl)cc2F)c1=O (stereo not shown) [1-162],5

# Tested on: pale smartweed (Po)
# Assay: as above
# Type: in vivo
# Parameters: scale not given here
# Details: 100 g of the active ingredient per 10 ares, evaluated on the 14th day after treatment
# In short: as §3
row,Compound,Herbicidal effects Po
1,Cn1c(C(F)(F)F)ccc(-c2cc(OC3CCOC3)c(Cl)cc2F)c1=O (stereo not shown) [1-162],5

# Tested on: rice flatsedge (Ci)
# Assay: as above
# Type: in vivo
# Parameters: scale not given here
# Details: 100 g of the active ingredient per 10 ares, evaluated on the 14th day after treatment
# In short: as §3
row,Compound,Herbicidal effects Ci
1,Cn1c(C(F)(F)F)ccc(-c2cc(OC3CCOC3)c(Cl)cc2F)c1=O (stereo not shown) [1-162],5

# Tested on: slender amaranth (Am)
# Assay: as above
# Type: in vivo
# Parameters: scale not given here
# Details: 100 g of the active ingredient per 10 ares, evaluated on the 14th day after treatment
# In short: as §3
row,Compound,Herbicidal effects Am
1,Cn1c(C(F)(F)F)ccc(-c2cc(OC3CCOC3)c(Cl)cc2F)c1=O (stereo not shown) [1-162],5

# Tested on: wheat (Tr)
# Assay: Test Example 9: crop plant selectivity by upland field foliage treatment (wheat), phytotoxicity;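 further: grade of crop injury; 5 = at least 90%; 4 = 70 to 90%; 3 = 50 to 70%; 2 = 30 to 50%; 1 = 10 to 30%; 0 = under 10%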
# Details: dose 1.6 g ai/10a, 14th day after treatment
# In short: (§4)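 Wheat and weeds sown in sand-filled pots, grown 2 weeks in a greenhouse, then foliage-treated. Herbicidal effect and crop phytotoxicity were scored 14 days after treatment against a rating scale.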
row,Compound,Phytotoxicity Tr
1,Cn1c(C(F)(F)F)ccc(-c2cc(OC3CCOC3)c(Cl)cc2F)c1=O (stereo not shown) [1-162],2

# Tested on: China jute (Ab)
# Assay: Test Example 9: crop plant selectivity by upland field foliage treatment (wheat), herbicidal effects
# Type: in vivo
# Parameters: scale not given here
# Details: dose 1.6 g ai/10a, 14th day after treatment
# In short: as §4
row,Compound,Herbicidal effects Ab
1,Cn1c(C(F)(F)F)ccc(-c2cc(OC3CCOC3)c(Cl)cc2F)c1=O (stereo not shown) [1-162],5

# Tested on: common lambsquarters (Ch)
# Assay: as above
# Type: in vivo
# Parameters: scale not given here
# Details: dose 1.6 g ai/10a, 14th day after treatment
# In short: as §4
row,Compound,Herbicidal effects Ch
1,Cn1c(C(F)(F)F)ccc(-c2cc(OC3CCOC3)c(Cl)cc2F)c1=O (stereo not shown) [1-162],5

# Tested on: pale smartweed (Po)
# Assay: as above
# Type: in vivo
# Parameters: scale not given here
# Details: dose 1.6 g ai/10a, 14th day after treatment
# In short: as §4
row,Compound,Herbicidal effects Po
1,Cn1c(C(F)(F)F)ccc(-c2cc(OC3CCOC3)c(Cl)cc2F)c1=O (stereo not shown) [1-162],5

# Tested on: slender amaranth (Am)
# Assay: as above
# Type: in vivo
# Parameters: scale not given here
# Details: dose 1.6 g ai/10a, 14th day after treatment
# In short: as §4
row,Compound,Herbicidal effects Am
1,Cn1c(C(F)(F)F)ccc(-c2cc(OC3CCOC3)c(Cl)cc2F)c1=O (stereo not shown) [1-162],5

# Tested on: corn (Ze)
# Assay: Test Example 11: crop plant selectivity by upland field foliage treatment (corn), phytotoxicity
# Details: upland field foliage treatment, dose 1.6 g ai/10a, 14th day after treatment
# Experimental: (§5) (Test on Crop Plant Selectivity by Upland Field Foliage Treatment)
# (§6) In a plastic pot (surface area: 600 cm^2) filled with sand, corn (Ze), pale smartweed (Po), slender amaranth (Am), common lambsquarters (Ch) and China jute (Ab) were sown and cultured in a green house for 2 weeks. […] The plants were then cultured in a green house, and the evaluation of the herbicidal effects and phytotoxicity was conducted on the 14th day after the treatment in accordance with the standards as identified in Table 47.
row,Compound,Phytotoxicity Ze
1,Cn1c(C(F)(F)F)ccc(-c2cc(OC3CCOC3)c(Cl)cc2F)c1=O (stereo not shown) [1-162],2

# Tested on: China jute (Ab)
# Assay: Test Example 11: crop plant selectivity by upland field foliage treatment (corn), herbicidal effects
# Type: in vivo
# Parameters: scale not given here
# Details: upland field foliage treatment (corn test), dose 1.6 g ai/10a, 14th day after treatment
# Experimental: as §5, §6
row,Compound,Herbicidal effects Ab
1,Cn1c(C(F)(F)F)ccc(-c2cc(OC3CCOC3)c(Cl)cc2F)c1=O (stereo not shown) [1-162],5

# Tested on: common lambsquarters (Ch)
# Assay: as above
# Type: in vivo
# Parameters: scale not given here
# Details: upland field foliage treatment (corn test), dose 1.6 g ai/10a, 14th day after treatment
# Experimental: as §5, §6
row,Compound,Herbicidal effects Ch
1,Cn1c(C(F)(F)F)ccc(-c2cc(OC3CCOC3)c(Cl)cc2F)c1=O (stereo not shown) [1-162],5

# Tested on: pale smartweed (Po)
# Assay: as above
# Type: in vivo
# Parameters: scale not given here
# Details: upland field foliage treatment (corn test), dose 1.6 g ai/10a, 14th day after treatment
# Experimental: as §5, §6
row,Compound,Herbicidal effects Po
1,Cn1c(C(F)(F)F)ccc(-c2cc(OC3CCOC3)c(Cl)cc2F)c1=O (stereo not shown) [1-162],5

# Tested on: slender amaranth (Am)
# Assay: as above
# Type: in vivo
# Parameters: scale not given here
# Details: upland field foliage treatment (corn test), dose 1.6 g ai/10a, 14th day after treatment
# Experimental: as §5, §6
row,Compound,Herbicidal effects Am
1,Cn1c(C(F)(F)F)ccc(-c2cc(OC3CCOC3)c(Cl)cc2F)c1=O (stereo not shown) [1-162],5
